Test results: patent US11872298B2, “Cosmetic use of arthrofactin” (L'OREAL, priority 2016, dated 2024)
*1 amine or outer side, *2 acyl side, *3 side chain or, on linkers, in order; H or OH if unused. Where a SMILES comes first, the peptide text is derived from it. Bridges are numbered along the chain shown (N, C = ends). [ ]: non-standard residue; d: D form. X1 = CC(C)CCCCCCCCC[C@H](CC(=O)[*:1])O[*:2]

System: genes associated with moisturization in keratinocytes
Experiment: Expression of genes associated with moisturization in keratinocytes cultivated in vitro (quantitative PCR)
Type: cell-based, human
Details: 0.002 mg/L and 0.01 mg/L in water
Method: K266 human epidermic keratinocytes were seeded in wells (50,000 cells/well) and cultivated in a Dermalife K medium (Lifeline LL-007) for 3 days at 37° C. and 5% of CO2. At the end of incubation, the culture medium was replaced by a test medium (K Dermalife supplemented with 1.5 mM CaCl2) containing or not containing (control) the mixture of arthrofactins obtained in example 1 in the form of a powder diluted to 0.1% in water or references (retinoic acid at 0.1 μM and 1 μM, or retinol at 10 μM). The cells were then incubated for 24 hours.
In parallel, normal human keratinocytes (NHK, 01.12) were seeded in wells (50,000 cells/well) and cultivated in a COMPLETE KGM medium (KGM BULLETKIT, LONZA, CC-3111) for 3 days at 37° C. and 5% of CO2. […]
The quantification of RNA and quality control were analyzed using LabChip GX (Perkin Elmer). Reverse transcription (RT) of RNA into cDNA was carried out using the Quantitect® inverse transcription kit (QIAGEN) following the manufacturer's recommendations. […]
The expression of selected transcripts was then analyzed by quantitative PCR using a LightCycler 480 Real-Time PCR System 384-well plate system (Roche) using the SYBR® Green incorporation technique (Roche). […]

`CC(C)CCCCCCCCC[C@@H]1CC(=O)N[C@@H](CCC(=O)O)C(=O)N[C@@H](CC(C)C)C(=O)N[C@H](CC(C)C)C(=O)N[C@@H](C(C)C)C(=O)N[C@@H](CC(=O)O)C(=O)N[C@H](CC(C)C)C(=O)N[C@@H](CC(C)C)C(=O)O1` [Sodium Surfactin] (EL[dL]VD[dL]L; linker N-C via X1) was tested, and the “Expression of genes associated with moisturization in keratinocytes” value was “lower expression”.
